The target in one data set is T1, human α9α10 nAChRs (Homo sapiens, UniProt Q9GZZ6+Q9UGM1).
T1 construct: expressed in transfected cells; host or cells: Xenopus laevis oocytes (cRNA injection)
Description: cell-based. The format is cell-based.

The subject of data set [1] is rat N-type (Cav2.2) calcium channels. The note with it: read-out: IC50 rN-type (Cav2.2); cited from earlier work.
Data set [2] deals with recombinant human Cav2.3 calcium channels. The settings on record: read-out: IC50 hCav2.3; cited from earlier work.
The subject of another data set is rat α9α10 nAChRs. The note with it: cited from earlier work.
For data set [3], the system named is recombinant human Cav2.3 calcium channels. The data set is classed as cell-based. The settings on record: read-out: IC50 hCav2.3.
Data set [4] deals with rat N-type (Cav2.2) calcium channels. The format is cell-based. The note with it: read-out: IC50 rN-type (Cav2.2).
A short description of another data set: in vitro. The settings on record: male, human, serum.

The values below come from paper PMC4542547 (Scientific Reports, 2015).

Each structure is given as a SMILES string. Several values for one entry are separate records, joined by “and”; a condition that tells them apart may be missing. Equal entries are not always repeated. Where two headings read alike, the source gives them in different places. Positions of bridges follow the written chain, without caps; N, C: chain ends. Residues, ends and D or L forms follow the SMILES beside them.

As usually defined, the IC50 is the concentration needed to halve the response being measured. As usually defined, the share remaining is what is left of the initial amount, in per cent. Read a high share remaining as less turnover.

T1 sequence (Q9UGM1 26-479 limits assumed): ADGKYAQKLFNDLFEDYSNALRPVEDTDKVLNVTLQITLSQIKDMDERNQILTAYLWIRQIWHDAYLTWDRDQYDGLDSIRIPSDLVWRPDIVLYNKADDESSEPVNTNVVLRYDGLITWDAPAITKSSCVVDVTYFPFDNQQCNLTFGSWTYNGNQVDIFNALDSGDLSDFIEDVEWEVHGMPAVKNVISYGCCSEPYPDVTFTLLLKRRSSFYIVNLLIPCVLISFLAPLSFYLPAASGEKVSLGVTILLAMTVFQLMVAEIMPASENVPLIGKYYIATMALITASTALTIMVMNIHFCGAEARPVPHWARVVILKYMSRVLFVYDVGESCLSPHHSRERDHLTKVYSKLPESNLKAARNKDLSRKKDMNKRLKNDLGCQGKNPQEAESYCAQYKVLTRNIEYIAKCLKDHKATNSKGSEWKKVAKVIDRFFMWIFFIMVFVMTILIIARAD
T1 sequence (Q9GZZ6 25-450): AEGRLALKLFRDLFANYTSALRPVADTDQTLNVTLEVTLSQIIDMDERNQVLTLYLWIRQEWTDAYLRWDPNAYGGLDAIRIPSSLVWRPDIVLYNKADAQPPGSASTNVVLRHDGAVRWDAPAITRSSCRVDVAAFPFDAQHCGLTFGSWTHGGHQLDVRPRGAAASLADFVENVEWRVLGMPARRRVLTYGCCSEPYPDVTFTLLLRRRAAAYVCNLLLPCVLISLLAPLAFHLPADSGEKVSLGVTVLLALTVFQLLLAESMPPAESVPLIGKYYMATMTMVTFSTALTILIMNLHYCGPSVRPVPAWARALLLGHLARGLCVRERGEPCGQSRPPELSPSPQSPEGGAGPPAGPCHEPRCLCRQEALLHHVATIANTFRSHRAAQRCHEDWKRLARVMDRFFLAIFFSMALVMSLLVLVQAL

For the molecule `CC[C@H](C)[C@@H]1NC(=O)[C@H](CCC(=O)O)NC(=O)[C@@H]2CCCN2C(=O)[C@H](Cc2cnc[nH]2)NC(=O)[C@H](CC(=O)O)NC(=O)[C@H](Cc2ccc(O)cc2)NC(=O)[C@H](CC(N)=O)NC(=O)[C@@H]2CSSC[C@H](NC(=O)CN)C(=O)N[C@@H](CSSC[C@@H](C(N)=O)NC1=O)C(=O)N[C@@H](CO)C(=O)N[C@@H](CC(=O)O)C(=O)N1CCC[C@H]1C(=O)N[C@@H](CCCNC(=N)N)C(=O)N2` [Vc1.1, reference compound], the IC50 on human α9α10 nAChRs is 320 nM.

In the case of `CC[C@H](C)[C@@H]1NC(=O)[C@H](CCC(=O)O)NC(=O)[C@@H]2CCCN2C(=O)[C@H](Cc2c[nH]cn2)NC(=O)[C@H](CC(=O)O)NC(=O)[C@H](Cc2ccc(O)cc2)NC(=O)[C@H](CC(N)=O)NC(=O)[C@@H]2CSSC[C@@H]3NC(=O)CNC(=O)CNC(=O)CNC(=O)[C@H](C)NC(=O)[C@H](C)NC(=O)CNC(=O)CNC(=O)[C@H](CSSC[C@H](NC3=O)C(=O)N[C@@H](CO)C(=O)N[C@@H](CC(=O)O)C(=O)N3CCC[C@H]3C(=O)N[C@@H](CCCNC(=N)N)C(=O)N2)NC1=O` [cVc1.1], the half-inhibitory concentration (IC50) in data set [1] is 0.3 nM; in data set [2], 0.29 nM; in the data set on rat α9α10 nAChRs, 765 nM.

In the case of `CC[C@H](C)[C@@H]1NC(=O)[C@H](CCC(=O)O)NC(=O)[C@@H]2CCCN2C(=O)[C@H](Cc2c[nH]cn2)NC(=O)[C@H](CC(=O)O)NC(=O)[C@H](Cc2ccc(O)cc2)NC(=O)[C@H](CC(N)=O)NC(=O)[C@H](Cc2ccccc2)NC(=O)[C@H](CCCNC(=N)N)NC(=O)[C@@H]2CCCN2C(=O)[C@H](CC(=O)O)NC(=O)[C@H](CO)NC(=O)[C@@H]2CSSC[C@H](NC1=O)C(=O)NCC(=O)NCC(=O)N[C@@H](C)C(=O)N[C@@H](C)C(=O)NCC(=O)NCC(=O)NCC(=O)N[C@@H](Cc1c[nH]cn1)C(=O)N2` [hcVc1.1] (cyclo(AAGGGHCSDPRFNYDHPEICGG); disulfide 7-20), the IC50 in data set [3] was ~0.9 nM and 0.961 nM; in data set [4] it was ~0.9 nM and 0.857 nM. Further, the “lower potency than cVc1.1 at human recombinant α9α10 nAChR currents” value at human α9α10 nAChRs is “two-fold”.

On to `CC[C@H](C)[C@@H]1NC(=O)[C@H](CCC(=O)O)NC(=O)[C@@H]2CCCN2C(=O)[C@H](Cc2cnc[nH]2)NC(=O)[C@H](CC(=O)O)NC(=O)[C@H](Cc2ccc(O)cc2)NC(=O)[C@H](CC(N)=O)NC(=O)[C@H](Cc2ccccc2)NC(=O)[C@H](CCCNC(=N)N)NC(=O)[C@@H]2CCCN2C(=O)[C@H](CC(=O)O)NC(=O)[C@H](CO)NC(=O)[C@@H]2CSSC[C@H](NC1=O)C(=O)NCC(=O)NCC(=O)N[C@@H](C)C(=O)N[C@@H](C)C(=O)NCC(=O)NCC(=O)NCC(=O)N[C@@H](Cc1cnc[nH]1)C(=O)N2` [hcVc1.1] (cyclo(AAGGGHCSDPRFNYDHPEICGG); disulfide 7-20), for which the amount remaining at 24 h in “in vitro” is approximately 90%.
